Measurements: patent publication US9891237B2, “Fluorescent sensor for metal cation detection based on 2-(2′-hydroxyphenyl)benzazole containing a Schiff base moiety” (priority 2013, dated 2018)

Legend:
[1] = Absorption, emission and Stokes' shift of ligands and their zinc complexes (Table 1); assay type: physicochemical
[2] = UV-vis absorption and fluorescence response/titration of 4 with Zn^2+ in EtOH/HEPES; assay type: binding
Protocol: (§1) FIG. 2 provides an absorbance spectra of 4 (10 μM) in EtOH/HEPES (10 mM) (1:1) (pH=7.2), upon addition of 5 equiv. of different cations.
(§2) FIG. 3 provides a fluorescence spectra of 4 (10 μM) in EtOH:HEPES=1:1 (pH=7.2) upon addition of 5 equiv. of different ions.
(§3) The binding property of 4 to Zn^2+ cation was examined in EtOH/HEPES (FIG. 2). As the Zn^2+ cation was added, a new absorption band was generated at about 450 nm.
(§4) The ligand 4 gave a weak fluorescence peak at 580 nm (φfl=0.05). […] NIR emission was relatively stronger in pure methanol. The green fluorescence turn-on could be easily observed, making it also useful for naked eye detection (FIG. 3). […] In other words, the probe molecule 4 is silent to Cd^2+ cation, as its binding could not remove the phenolic proton (a necessary step to simultaneously shift the emission and turn on the ESIPT for NIR emission).
(§5) In order to clarify the interaction of 4 with different metal ions, the UV-vis absorption and fluorescence spectra of 4 (10 μM in EtOH:H2O=1:1 solutions) were studied by addition of 5 equiv. of different cations.
A It is important to note that, while the ligand 4 can bind Zn^2+ cation well, the same is not true for the Cd^2+ cation, although the atomic configuration ([Ar]3d^10 for Zn^2+ and [Kr]4d^10 for Cd^2+). On the basis of quick disappearance of the —OH signal at ˜10 ppm (^1H NMR in FIG. 5), the initial step might involve a weak interaction of metal cation with the imine —CH═N—, forming intermediate 5. […] The Zn^2+ cation in 6a could further interact with the adjacent hydroxyl group to form the fused 6-membered ring “B”, which requires twisting of the “HBO” fragment from the Schiff base fragment (ring A).

[3] = Fluorescence of free ligand 4; assay type: physicochemical
Protocol: as §2, §4, §5

[4] = tested on: human cancer cells (HepG2) and human umbilical vein endothelial cells (HUVECs); assay: Confocal fluorescence imaging of intracellular Zn^2+ with sensor 4; assay type: cell-based
Protocol: FIG. 8A provides confocal fluorescence images of Human mesenchymal stem cells (hMSCs) excited with a 488 laser. The image were collected at bright field on an Olympus FV1000-Filter Confocal Microscopy. a→b: the cells were incubated with dye 4 for 60 mins at 37° C.
FIG. 8B provides confocal fluorescence images of Human mesenchymal stem cells (hMSCs) excited with a 488 laser. The images were collected at green channel (535-565 nm) on an Olympus FV1000-Filter Confocal Microscopy. a→b: the cells were incubated with dye 4 for 60 mins at 37° C.
(§6) FIG. 8C provides confocal fluorescence images of Human mesenchymal stem cells (hMSCs) excited with a 488 laser. The images were collected at bright field on an Olympus FV1000-Filter Confocal Microscopy. c→d: the cells were first treated with Zn(OAc)2 (30 μM) for 30 mins and further exposed to dye 4 (10 μM) for another 60 mins at 37° C.
as §6, with “8D” for “8C”, “green channel (535-565 nm)” for “at bright field”, “Microscopy.” for “Microscopy. c→d:”
To illustrate the potential biological application, sensor 4 was applied to visualize intracellular Zn^2+ in both human cancer cells (HepG2) and human umbilical vein endothelial cells (HUVECs) (See FIGS. 8A-D). FIGS. 8A-D show confocal fluorescence images of Human mesenchymal stem cells (hMSCs) excited with a 488 laser. The images were collected at bright field (a and c) and green channel (535-565 nm; b and d) on an Olympus FV1000-Filter Confocal Microscopy. a→b: the cells were incubated with dye 4 for 60 mins at 37° C.; c→d: the cells were first treated with Zn(OAc)2 (30 μM) for 30 mins and further exposed to dye 4 (10 μM) for another 60 mins at 37° C. For this purpose, cells were first incubated with 30 μM of Zn^2+ for 30 mins and then further treated with 10 μM dye 4 for another […]. […]

[5] = UV-vis absorption and fluorescence response of 4 to 5 equiv. of different cations
Protocol: as §1, §2, §4, §5

[6] = UV-vis absorption and fluorescence response of 4 to Al^3+
Protocol: as §1, §2, §3, §4, §5

[7] = UV-vis absorption and fluorescence response of 4 to Cd^2+; assay type: binding
Protocol: as §1, §2, §3, §4, §5
When Cd^2+ was used, the interaction pattern appeared to be quite different. […] Therefore, the equilibrium between 6b and 8 might occur without forming the fused rings A-B in 4-Cd. […]

[8] = tested on: human mesenchymal stem cells (hMSCs); assay: Confocal fluorescence imaging of intracellular Cr^3+ and Al^3+ with sensor 1; assay type: cell-based
Text: FIG. 15A provides a confocal fluorescence images of Human mesenchymal stem cells (hMSCs) excited with a Diode laser (405 nm) on an Olympus FV-1000 laser scanning microscope. The images were collected at bright field. […]
FIG. 15B provides a confocal fluorescence images of Human mesenchymal stem cells (hMSCs) excited with a Diode laser (405 nm) on an Olympus FV-1000 laser scanning microscope. The images were collected at bright field. […] 15E was collected from 535-565 nm.
FIG. 15C provides a confocal fluorescence images of Human mesenchymal stem cells (hMSCs) excited with a Diode laser (405 nm) on an Olympus FV-1000 laser scanning microscope. The images were collected at bright field. […] 15F was collected from 505-525 nm
FIG. 15D provides a confocal fluorescence images of Human mesenchymal stem cells (hMSCs) excited with a Diode laser (405 nm) on an Olympus FV-1000 laser scanning microscope. The images were collected fluorescent channels. […]
FIG. 15E provides a confocal fluorescence images of Human mesenchymal stem cells (hMSCs) excited with a Diode laser (405 nm) on an Olympus FV-1000 laser scanning microscope. The images were collected fluorescent channels. […] 15E was collected from 535-565 nm.
FIG. 15F provides a confocal fluorescence images of Human mesenchymal stem cells (hMSCs) excited with a Diode laser (405 nm) on an Olympus FV-1000 laser scanning microscope. The images were collected fluorescent channels. […] 15F was collected from 505-525 nm
The potential application of 1 for both Cr^3+ and Al^3+ in biological samples was examined by using confocal fluorescence microscopy. […] Bright-field measurements confirmed that the cells, after being treated with Cr^3+/Al^3+ and 1, were viable throughout the imaging experiments. […] Response to Cr^3+ and Al^3+ ions with distinctly different colors (yellow-green and cyan, respectively) from the cell samples raised the prospect that the Cr^3+ and Al^3+ ions could be simultaneously determined and distinguished

[9] = Fluorescence response of sensor 1 to Fe^3+ in H2O:EtOH=8:2
Text: (§7) (Cr: ΦF=0.63; Al: ΦF=0.31).

[10] = UV-vis and fluorescence response of sensor 1 to mono- and divalent metal ions
Text: as §7

[11] = Absorption and fluorescence of free sensor 1 in aqueous medium; assay type: physicochemical
Protocol: Sensor 1 was synthesized by refluxing the corresponding dialdehyde (as described in W. Chen, Y. Xing, and Y. Pang, Org. Lett., 2011, 13, 1262) with hydrazinopyridine in EtOH for 2 hours, and was collected as yellow solid in >90% yield.
as §7

[12] = UV-vis and fluorescence response of sensor 1 to Al^3+ in H2O:EtOH=8:2
Text: as §7

[13] = 10 μM in EtOH:H2O=1:1, 5 equiv.

## Cc1ccc2nc(-c3cc(O)c(C=NNc4ccccn4)cc3O)oc2c1 [Sensor 4]
[1]
  Absorption λmax (nm): 413 nm
  Stokes' shift: 6971 cm⁻¹
[1]; first or only emission peak
  Emission λem (nm): 580 nm
[1]; value in brackets
  Stokes' shift: 167 nm
[2]; 1:1 EtOH/H2O
  φfl upon addition of Zn^2+: 0.26
[2]; EtOH/HEPES
  new absorption band upon Zn^2+ addition: about 450 nm
[2]; from the fluorescence titration data
  association constant Ka: 228000 M⁻¹
[2]; upon Zn^2+ binding
  Stokes' shift of NIR emission: ~260 nm
[2]; upon addition of Zn^2+
  NIR emission peak upon addition of Zn^2+ (keto tautomer): ~720 nm
  emission peak upon addition of Zn^2+ (enol tautomer): 545 nm
[2]; versus other cations
  selectivity toward Zn^2+ binding: excellent selectivity
[3]
  fluorescence peak of the ligand: 580 nm
  φfl: 0.05
[4]
  cell permeability: permeable to cells
[4]; 30 μM Zn^2+ 30 mins, then 10 μM dye
  fluorescence in cells treated with Zn^2+ and the dye: strong fluorescence
[4]; dye only, green channel 535-565 nm, 488 laser
  fluorescence in cells treated with only the dye: very weak fluorescence
[5]
  dual emission on addition of other cations (K^+, Na^+, Ag^+, Cd^2+, Ca^2+, Mg^2+, Pb^2+, Ni^2+, Hg^2+, Co^2+, Cu^2+, Cr^3+, Fe^3+, Al^3+): did not induce the dual emissions at 545 and 720 nm
[5]; [13]
  fluorescence effect of Ag^+, Co^2+, Ni^2+ and Cu^2+: quenched the fluorescence
  fluorescence effect of Cr^3+, Fe^3+ and Al^3+: slightly increased the fluorescence
  red shift of fluorescence signal on addition of Cr^3+, Fe^3+ and Al^3+: 25-37 nm
  response to K^+, Na^+, Ca^2+ ions: no response
[6]
  enhanced emission induced by Al^3+: ~610 nm
[6]; EtOH/HEPES
  bathochromic shift of absorption on addition of other cations such as Al^3+: did not cause a notable bathochromic shift
[7]; [13]
  fluorescence response to Cd^2+ cation: no observable fluorescence response
[7]; absorption, EtOH/HEPES
  binding to Cd^2+ cation: weak binding

## Oc1c(C=NNc2ccccn2)cc(C=NNc2ccccn2)cc1-c1nc2ccccc2o1 [Sensor 1]
other
  Stokes' shift of the Cr^3+ complex emission: 195 nm
  new π-π* absorption band upon addition of Cr^3+: about 358 nm
10 equiv. other metal ions, then 10 equiv. Cr^3+
  selectivity as chemosensor for Cr^3+: highly selective
H2O:EtOH=8:2
  fluorescence response upon addition of Cr^3+: immediate fluorescence turn-on
  ΦF with Cr^3+: 0.63
H2O:EtOH=8:2, yellow green
  emission λem with Cr^3+: ~556 nm
[8]
  cell permeability: permeable to cells
[8]; 10 μM dye
  intracellular fluorescence, control without added metal ions: negligible intracellular fluorescence
[8]; after treatment with Cr^3+/Al^3+ and 1
  cell viability during imaging (bright-field): viable
[8]; then 10 μM sensor 30 minutes
  intracellular fluorescence after Al^3+: significant increase in the fluorescence
  intracellular fluorescence after Cr^3+: significant increase in the fluorescence
[9]
  fluorescence response upon addition of Fe^3+: immediate fluorescence turn-on
  time to quenching of fluorescence with Fe^3+: ≤ 5 min
[10]; 10 equiv.
  fluorescence effect of Mn^2+, Ni^2+, Pb^2+, Ba^2+, Ag^+, Hg^2+: slight quenching
  response to Ca^2+, Mg^2+, Na^+ and K^+: negligible response
[10]; 10 equiv., except Cu^2+
  change in UV-vis spectra on addition of M^+ and M^2+ cations: almost no change
[10]; 10 equivalents
  fluorescence effect of Cu^2+: quenched the fluorescence
[10]; 10 equivalents, H2O:EtOH=8:2, except Cu^2+
  fluorescence change on addition of divalent metal ions: negligible fluorescence change
[11]
  absorption major peak (π-π*): 315 nm
  absorption minor peak (n-π*): 432 nm
[11]; free sensor, H2O:EtOH=8:2
  Stokes' shift: 180 nm
  ΦF: 0.1
[12]
  Stokes' shift of the Al^3+ complex emission: 170 nm
  stability of fluorescence with Al^3+ over time: quite stable
[12]; H2O:EtOH=8:2
  fluorescence response upon addition of Al^3+: immediate fluorescence turn-on
  ΦF with Al^3+: 0.31
[12]; H2O:EtOH=8:2, blue-green
  emission λem with Al^3+: ~527 nm
